1 compound from patent publication US11666560B2, “Anti-fibrotic agent” (George Mason University, priority 2020, dated 2023) can be followed below.

The structures appear in SMILES notation.

Test [1] has as its system Klebsiella pneumoniae strain 43816. The experiment in a line: Minimal inhibitory concentration (MIC) method, growth of Klebsiella pneumoniae in tryptic soy broth. The class given is cell-based. The procedure: FIG. 3 show CFU of Klebsiella pneumoniae cultured in tryptic soy broth at 37° C. for 24 h with 0, 10 nM, 100 nM, 1 μM, and 10 μM CT474 dissolved in 1% Dimethyl sulfoxide (DMSO).
Microorganisms: Klebsiella pneumoniae strain 43816 (American Type Culture Collection, Manassas, Va.) was used for the studies.
The minimal inhibitory concentration (MIC) method was used to characterize the in vitro efficacy of the compound as shown in the FIG. 3. Briefly, Klebsiella pneumoniae strain 43816 (American Type Culture Collection, Manassas, Va.) was grown overnight at 37° C. to mid-log phase in tryptic soy broth. CT474 was initially suspended with DMSO, then diluted in the culture broth with final concentrations of CT474 at 0 nM (1% DMSO alone), 10 nM, 100 nM, 1 μM, and 10 μM with 10,000 CFU Klebsiella pneumoniae in 10 mL tryptic soy broth. OD600 was measured 24 h later, then the CFU was determined using a standard curve.
Statistical calculations were performed using from repeated measures. Analysis of variation (ANOVA) was used to determine differences between groups.

In test [2] the test system is murine lung exposed to bleomycin. The experiment in a line: Treatment of bleomycin-exposed mice with CT474 (post-disease modeling of lung fibrosis). The class given is in vivo, mice (C57B6 WT). Particulars: treated from days 7 to 13, vehicle vs CT474, N=13-15 per group. The text has this:
“Vehicle” as used herein is the substance used as a carrier for the pharmaceutical agent to include aqueous solutions or oils. Oils are derived from petroleum, animal, vegetable or synthetic origin, such as peanut oil. In FIGS. 5-7 signify “veh” signify vehicle. Flow cytometry of peripheral blood buffy coat after being treated with either vehicle or CT474. Pre-mortem Pressure-Volume curve using Sireq Flexivent in murine lung exposed to bleomycin then treated from days 7 to 13 with vehicle or CT474 is shown in FIG. 6. Soluble collagen measured by Sircol assay in murine lung (C57B6 WT) exposed to bleomycin then treated from days 7 to 13 with vehicle (n=15) or […] (n=13) is shown in FIG. 7. Statistical calculations were performed using from repeated measures. Analysis of variation (ANOVA) was used to determine differences between groups.

Turning to `CO[C@H]1C[C@@H](C)C/C(C)=C/[C@@H](C/C=C/c2cc3ccccc3c3ccccc23)C(=O)C[C@H](O)[C@@H](C)[C@@H](/C(C)=C/[C@@H]2CC[C@@H](O)[C@H](OC)C2)OC(=O)[C@@H]2CCCCN2C(=O)C(=O)[C@]2(O)O[C@H]1[C@@H](OC)C[C@H]2C` [CT474], the “effect on the growth of Klebsiella pneumoniae (CFU determined from OD600)” value in test [1] (10 nM, 100 nM, 1 μM, 10 μM CT474 in 1% DMSO, tryptic soy broth, 37° C., 24 h, 10,000 CFU inoculum) is “increasingly suppressive effects”. Moreover, the “colony forming units (CFU) of Klebsiella pneumoniae” value in test [1] (increase in concentration of CT474 from 10 nM upto 1 μM) is “consecutive decrease”. Besides, the fibrotic lung damage entry in test [2] is reported as “significant reduction”.
